# Where two headings read alike, the source gives them in different places.
# Assays:
# Assay in all cases: ActivX kinase probe assay (human PBMC)
# Format in all cases: binding
# [1] = test system: AMPKa1, AMPKa2
# [2] = target: MST1 (Homo sapiens (Human), UniProt Q13043); conditions: read-out: percent inhibition
# [3] = target: AMPKa1 (Homo sapiens (Human), UniProt Q13131); conditions: AMPKa1, read-out: percent inhibition
# [4] = target: ZAK (Homo sapiens (Human), UniProt Q9NYL2); conditions: ZAK, read-out: percent inhibition
# [5] = target: Erk5 (Homo sapiens (Human), UniProt Q13164); conditions: Erk5, read-out: percent inhibition
# [6] = target: FER (Homo sapiens (Human), UniProt P16591); conditions: FER, read-out: percent inhibition
# [7] = target: RSK1 domain2 (Homo sapiens (Human), UniProt Q15418); conditions: RSK1 domain2, read-out: percent inhibition
# Chain of RSK1 domain2 (Q15418 whole entry, the tested form may be a part): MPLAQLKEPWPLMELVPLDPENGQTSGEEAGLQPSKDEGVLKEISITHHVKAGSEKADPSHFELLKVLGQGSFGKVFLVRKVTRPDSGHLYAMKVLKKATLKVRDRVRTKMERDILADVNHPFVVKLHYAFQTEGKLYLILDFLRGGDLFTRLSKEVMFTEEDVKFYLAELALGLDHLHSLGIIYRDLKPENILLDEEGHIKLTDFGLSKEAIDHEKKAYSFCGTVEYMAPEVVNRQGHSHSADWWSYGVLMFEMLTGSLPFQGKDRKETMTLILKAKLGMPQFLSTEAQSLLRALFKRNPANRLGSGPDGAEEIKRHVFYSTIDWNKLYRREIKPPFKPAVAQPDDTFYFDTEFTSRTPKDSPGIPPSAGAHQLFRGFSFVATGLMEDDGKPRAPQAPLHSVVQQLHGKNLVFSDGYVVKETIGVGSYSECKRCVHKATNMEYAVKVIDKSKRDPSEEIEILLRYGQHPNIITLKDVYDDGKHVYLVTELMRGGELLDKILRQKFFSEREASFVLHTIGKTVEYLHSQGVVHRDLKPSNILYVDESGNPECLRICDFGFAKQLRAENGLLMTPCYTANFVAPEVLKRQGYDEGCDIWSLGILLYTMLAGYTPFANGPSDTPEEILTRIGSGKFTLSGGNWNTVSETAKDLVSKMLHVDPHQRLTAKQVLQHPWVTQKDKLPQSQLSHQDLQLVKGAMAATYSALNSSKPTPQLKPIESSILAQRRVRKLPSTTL
# [8] = target: IRAK4 (Homo sapiens (Human), UniProt Q9NWZ3); conditions: IRAK4, read-out: percent inhibition
# Chain of IRAK4 (Q9NWZ3 whole entry): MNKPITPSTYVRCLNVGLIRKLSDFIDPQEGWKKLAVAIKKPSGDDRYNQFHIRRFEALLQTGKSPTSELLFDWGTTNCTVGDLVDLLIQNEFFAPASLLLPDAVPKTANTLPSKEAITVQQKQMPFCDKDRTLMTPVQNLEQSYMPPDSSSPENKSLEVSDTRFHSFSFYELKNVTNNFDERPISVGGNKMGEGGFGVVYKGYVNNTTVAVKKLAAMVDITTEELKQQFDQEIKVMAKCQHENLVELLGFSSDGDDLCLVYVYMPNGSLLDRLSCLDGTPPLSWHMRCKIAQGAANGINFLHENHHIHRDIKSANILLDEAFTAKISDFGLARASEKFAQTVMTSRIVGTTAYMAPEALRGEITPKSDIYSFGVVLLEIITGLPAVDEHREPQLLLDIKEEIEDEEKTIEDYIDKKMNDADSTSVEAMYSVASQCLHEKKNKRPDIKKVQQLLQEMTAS
# [9] = target: PIP4K2C (Homo sapiens (Human), UniProt Q8TBX8); conditions: read-out: percent inhibition
# Chain of PIP4K2C (Q8TBX8 whole entry): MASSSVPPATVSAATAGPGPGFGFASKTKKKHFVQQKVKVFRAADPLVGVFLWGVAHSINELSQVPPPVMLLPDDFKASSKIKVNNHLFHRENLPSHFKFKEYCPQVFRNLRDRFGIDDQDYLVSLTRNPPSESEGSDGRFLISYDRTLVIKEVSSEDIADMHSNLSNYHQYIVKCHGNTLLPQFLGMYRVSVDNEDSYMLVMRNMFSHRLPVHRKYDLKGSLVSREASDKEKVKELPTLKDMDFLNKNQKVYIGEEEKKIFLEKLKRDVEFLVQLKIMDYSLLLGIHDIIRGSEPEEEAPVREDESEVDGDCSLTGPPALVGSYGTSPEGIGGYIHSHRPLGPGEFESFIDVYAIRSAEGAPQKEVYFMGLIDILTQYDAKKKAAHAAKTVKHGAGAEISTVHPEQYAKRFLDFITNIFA
# [10] = target: p38a (Homo sapiens (Human), UniProt Q16539); conditions: p38a, read-out: percent inhibition
# [11] = test system: Wnk1, Wnk2, Wnk4
# [12] = test system: MST1, MST2
# [13] = target: DNAPK (Homo sapiens (Human), UniProt P78527); conditions: DNAPK, read-out: percent inhibition
# [14] = target: RSKL1 domain1 (Homo sapiens (Human), UniProt Q96S38); conditions: RSKL1 domain1, read-out: percent inhibition
# [15] = target: MLK3 (Homo sapiens (Human), UniProt Q16584); conditions: MLK3, read-out: percent inhibition
# [16] = test system: p38d, p38g
# [17] = target: ILK (Homo sapiens (Human), UniProt Q13418); conditions: ILK, read-out: percent inhibition
# [18] = target: p70S6Kb (Homo sapiens (Human), UniProt Q9UBS0); conditions: p70S6Kb, read-out: percent inhibition
# [19] = target: IKKe (Homo sapiens (Human), UniProt Q14164); conditions: IKKe, read-out: percent inhibition
# [20] = target: MLKL (Homo sapiens (Human), UniProt Q8NB16); conditions: MLKL, read-out: percent inhibition
# [21] = target: FYN (Homo sapiens (Human), UniProt P06241); conditions: FYN, read-out: percent inhibition
# [22] = target: PAN3 (Homo sapiens (Human), UniProt Q58A45); conditions: PAN3, read-out: percent inhibition
# Chain of PAN3 (Q58A45 whole entry): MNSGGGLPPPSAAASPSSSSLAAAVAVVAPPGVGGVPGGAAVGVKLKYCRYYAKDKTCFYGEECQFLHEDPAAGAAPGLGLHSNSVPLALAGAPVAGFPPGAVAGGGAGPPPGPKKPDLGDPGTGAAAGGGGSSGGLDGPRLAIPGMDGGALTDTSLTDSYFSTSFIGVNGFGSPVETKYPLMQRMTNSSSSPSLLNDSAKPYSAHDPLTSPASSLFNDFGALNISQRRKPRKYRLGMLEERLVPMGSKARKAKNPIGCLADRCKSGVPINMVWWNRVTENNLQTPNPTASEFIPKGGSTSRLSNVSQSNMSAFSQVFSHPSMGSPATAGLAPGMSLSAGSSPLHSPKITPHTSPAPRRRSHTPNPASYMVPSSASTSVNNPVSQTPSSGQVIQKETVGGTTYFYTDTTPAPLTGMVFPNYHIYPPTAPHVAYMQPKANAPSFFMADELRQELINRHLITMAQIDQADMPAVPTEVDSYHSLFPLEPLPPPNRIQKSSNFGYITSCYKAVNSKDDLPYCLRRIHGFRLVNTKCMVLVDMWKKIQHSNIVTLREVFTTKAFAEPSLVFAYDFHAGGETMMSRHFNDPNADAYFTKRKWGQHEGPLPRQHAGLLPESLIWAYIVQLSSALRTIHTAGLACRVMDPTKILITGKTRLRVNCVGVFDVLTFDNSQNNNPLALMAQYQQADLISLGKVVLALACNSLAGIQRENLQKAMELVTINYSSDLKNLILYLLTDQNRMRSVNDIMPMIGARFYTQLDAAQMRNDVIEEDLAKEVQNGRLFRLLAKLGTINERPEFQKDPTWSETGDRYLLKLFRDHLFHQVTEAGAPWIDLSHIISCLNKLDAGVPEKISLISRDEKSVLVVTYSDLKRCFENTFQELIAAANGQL
# [23] = target: MST2 (Homo sapiens (Human), UniProt Q13188); conditions: read-out: percent inhibition
# [24] = target: JAK1 domain2 (Homo sapiens (Human), UniProt P23458); conditions: JAK1 domain2, read-out: percent inhibition
# [25] = test system: TAO1, TAO3
# [26] = target: MAP2K4 (Homo sapiens (Human), UniProt P45985); conditions: MAP2K4, read-out: percent inhibition
# [27] = target: IRAK3 (Homo sapiens (Human), UniProt Q9Y616); conditions: IRAK3, read-out: percent inhibition
# Chain of IRAK3 (Q9Y616 whole entry): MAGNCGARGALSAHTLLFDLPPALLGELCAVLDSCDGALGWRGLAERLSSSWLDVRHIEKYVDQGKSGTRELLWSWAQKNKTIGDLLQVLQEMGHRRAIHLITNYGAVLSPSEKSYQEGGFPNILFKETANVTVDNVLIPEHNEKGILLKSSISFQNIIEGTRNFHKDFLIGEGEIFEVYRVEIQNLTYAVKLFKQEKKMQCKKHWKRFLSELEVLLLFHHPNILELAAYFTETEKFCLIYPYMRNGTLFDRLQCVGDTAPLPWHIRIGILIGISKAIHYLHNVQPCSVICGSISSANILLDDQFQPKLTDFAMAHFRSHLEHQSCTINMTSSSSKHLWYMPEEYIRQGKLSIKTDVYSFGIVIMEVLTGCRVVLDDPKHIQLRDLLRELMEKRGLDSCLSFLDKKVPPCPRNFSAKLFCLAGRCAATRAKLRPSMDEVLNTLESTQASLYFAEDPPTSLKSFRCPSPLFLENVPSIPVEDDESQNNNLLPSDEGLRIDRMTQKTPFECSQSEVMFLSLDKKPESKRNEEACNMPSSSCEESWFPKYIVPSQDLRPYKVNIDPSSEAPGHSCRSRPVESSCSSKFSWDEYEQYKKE
# [28] = target: OSR1 (Homo sapiens (Human), UniProt O95747); conditions: OSR1, read-out: percent inhibition
# [29] = target: smMLCK (Homo sapiens (Human), UniProt Q15746); conditions: smMLCK, read-out: percent inhibition
# Chain of smMLCK (Q15746 whole entry): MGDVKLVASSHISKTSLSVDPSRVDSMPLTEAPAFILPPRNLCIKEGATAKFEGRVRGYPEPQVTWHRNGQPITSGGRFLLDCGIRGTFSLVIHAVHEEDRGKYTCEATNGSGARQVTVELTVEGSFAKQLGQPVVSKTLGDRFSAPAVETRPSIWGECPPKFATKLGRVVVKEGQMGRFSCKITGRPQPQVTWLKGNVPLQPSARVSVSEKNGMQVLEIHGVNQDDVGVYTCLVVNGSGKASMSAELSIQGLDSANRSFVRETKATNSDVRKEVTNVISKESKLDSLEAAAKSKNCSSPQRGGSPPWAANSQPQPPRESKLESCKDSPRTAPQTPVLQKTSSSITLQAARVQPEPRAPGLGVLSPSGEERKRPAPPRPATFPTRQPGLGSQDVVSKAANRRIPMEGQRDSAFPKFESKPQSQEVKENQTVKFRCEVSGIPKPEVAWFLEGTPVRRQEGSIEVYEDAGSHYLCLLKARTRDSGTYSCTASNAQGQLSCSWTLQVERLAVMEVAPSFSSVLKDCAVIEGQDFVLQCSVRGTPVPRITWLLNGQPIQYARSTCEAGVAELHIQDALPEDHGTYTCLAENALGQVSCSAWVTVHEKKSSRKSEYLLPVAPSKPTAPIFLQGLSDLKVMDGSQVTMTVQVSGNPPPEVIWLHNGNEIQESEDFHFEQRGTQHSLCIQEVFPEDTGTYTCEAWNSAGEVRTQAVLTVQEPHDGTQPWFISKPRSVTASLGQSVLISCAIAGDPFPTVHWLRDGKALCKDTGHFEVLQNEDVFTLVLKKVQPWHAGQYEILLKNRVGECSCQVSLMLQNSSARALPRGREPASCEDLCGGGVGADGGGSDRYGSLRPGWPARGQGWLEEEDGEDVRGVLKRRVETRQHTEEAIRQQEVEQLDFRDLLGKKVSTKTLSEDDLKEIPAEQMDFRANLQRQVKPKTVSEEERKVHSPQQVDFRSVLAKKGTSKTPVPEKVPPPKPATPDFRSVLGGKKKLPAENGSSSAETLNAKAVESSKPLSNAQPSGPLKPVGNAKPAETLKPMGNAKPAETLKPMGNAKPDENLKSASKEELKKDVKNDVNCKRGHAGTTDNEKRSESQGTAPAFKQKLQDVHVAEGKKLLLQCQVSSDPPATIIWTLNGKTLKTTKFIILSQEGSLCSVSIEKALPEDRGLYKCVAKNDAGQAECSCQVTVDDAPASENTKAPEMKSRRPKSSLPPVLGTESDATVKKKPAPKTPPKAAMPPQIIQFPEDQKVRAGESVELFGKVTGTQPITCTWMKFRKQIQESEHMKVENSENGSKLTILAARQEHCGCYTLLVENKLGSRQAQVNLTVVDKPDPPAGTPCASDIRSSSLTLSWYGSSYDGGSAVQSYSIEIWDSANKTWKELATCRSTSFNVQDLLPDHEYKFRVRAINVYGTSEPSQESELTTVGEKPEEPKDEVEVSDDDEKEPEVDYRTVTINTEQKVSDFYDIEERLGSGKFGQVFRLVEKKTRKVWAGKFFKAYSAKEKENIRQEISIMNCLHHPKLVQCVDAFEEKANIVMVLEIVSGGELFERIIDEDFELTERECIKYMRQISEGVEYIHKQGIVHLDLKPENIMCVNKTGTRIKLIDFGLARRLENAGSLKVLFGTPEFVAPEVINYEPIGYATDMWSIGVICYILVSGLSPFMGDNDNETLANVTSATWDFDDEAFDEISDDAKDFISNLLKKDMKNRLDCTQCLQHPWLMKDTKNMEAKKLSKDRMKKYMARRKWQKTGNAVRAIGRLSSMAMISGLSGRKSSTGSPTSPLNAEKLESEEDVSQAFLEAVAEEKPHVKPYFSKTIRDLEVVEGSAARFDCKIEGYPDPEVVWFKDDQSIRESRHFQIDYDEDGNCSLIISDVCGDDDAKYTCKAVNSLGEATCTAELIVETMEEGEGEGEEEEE
# [30] = target: PIK3CG (Homo sapiens (Human), UniProt P48736); conditions: PIK3CG, read-out: percent inhibition
# [31] = target: IKKb (Homo sapiens (Human), UniProt O14920); conditions: IKKb, read-out: percent inhibition
smiles,measurement,setting,value
"Cn1cc(-c2c[nH]c3ncnc(N4CCOCC4)c23)cc1C#N [Example 217, 1-methyl-4-[4-(morpholin-4-yl)-7H-pyrrolo[2,3-d]pyrimidin-5-yl]-1H-pyrrole-2-carbonitrile]",percent inhibition,[1]; 0.1 μM,5.7%
same,percent inhibition,[1]; 1 μM,16.5%
same,inhibition at 0.1 µM,[2]; 0.1 μM,25.6%
same,inhibition at 1 µM,[2]; 1 μM,73.5%
same,inhibition at 0.1 µM,[3]; 0.1 μM,27.2%
same,inhibition at 1 µM,[3]; 1 μM,48.8%
same,inhibition at 0.1 µM,[4]; 0.1 μM,-2.9%
same,inhibition at 1 µM,[4]; 1 μM,-1.2%
same,inhibition at 0.1 µM,[5]; 0.1 μM,-2.6%
same,inhibition at 1 µM,[5]; 1 μM,-5.4%
same,inhibition at 0.1 µM,[6]; 0.1 μM,5.2%
same,inhibition at 1 µM,[6]; 1 μM,16.3%
same,inhibition at 0.1 µM,[7]; 0.1 μM,-3.4%
same,inhibition at 1 µM,[7]; 1 μM,5%
same,inhibition at 0.1 µM,[8]; 0.1 μM,14.7%
same,inhibition at 1 µM,[8]; 1 μM,34.5%
same,inhibition at 0.1 µM,[9]; PIP4K2C (first line of two),6.2%
same,inhibition at 1 µM,[9]; PIP4K2C (first line of two),-11.9%
same,inhibition at 0.1 µM,[9]; PIP4K2C (second line of two),-4.7%
same,inhibition at 1 µM,[9]; PIP4K2C (second line of two),4%
same,inhibition at 0.1 µM,[10]; 0.1 μM,-1.1%
same,inhibition at 1 µM,[10]; 1 μM,-4.6%
same,percent inhibition,[11]; 0.1 μM,2.2%
same,percent inhibition,[11]; 1 μM,−5.4%
same,percent inhibition,[12]; 0.1 μM,21.9%
same,percent inhibition,[12]; 1 μM,72.6%
same,inhibition at 0.1 µM,[13]; 0.1 μM,31%
same,inhibition at 1 µM,[13]; 1 μM,31.5%
same,inhibition at 0.1 µM,[14]; 0.1 μM,-15.9%
same,inhibition at 1 µM,[14]; 1 μM,-30.6%
same,inhibition at 0.1 µM,[15]; 0.1 μM,-13.5%
same,inhibition at 1 µM,[15]; 1 μM,-9.6%
same,percent inhibition,[16]; 0.1 μM,−0.4%
same,percent inhibition,[16]; 1 μM,1.5%
same,inhibition at 0.1 µM,[17]; 0.1 μM,-6.3%
same,inhibition at 1 µM,[17]; 1 μM,-3.8%
same,inhibition at 0.1 µM,[18]; 0.1 μM,-2.2%
same,inhibition at 1 µM,[18]; 1 μM,-16.7%
same,inhibition at 0.1 µM,[19]; 0.1 μM,-3%
same,inhibition at 1 µM,[19]; 1 μM,20.4%
same,inhibition at 0.1 µM,[20]; 0.1 μM,2.5%
same,inhibition at 1 µM,[20]; 1 μM,-3.3%
same,inhibition at 0.1 µM,[21]; 0.1 μM,-2.1%
same,inhibition at 1 µM,[21]; 1 μM,-6.8%
same,inhibition at 0.1 µM,[22]; 0.1 μM,5.6%
same,inhibition at 1 µM,[22]; 1 μM,-7.5%
same,inhibition at 0.1 µM,[23]; 0.1 μM,34.9%
same,inhibition at 1 µM,[23]; 1 μM,83.2%
same,inhibition at 0.1 µM,[24]; 0.1 μM,7.4%
same,inhibition at 1 µM,[24]; 1 μM,10.1%
same,percent inhibition,[25]; 0.1 μM,−9.7%
same,percent inhibition,[25]; 1 μM,−16.5%
same,inhibition at 0.1 µM,[26]; 0.1 μM,2.3%
same,inhibition at 1 µM,[26]; 1 μM,1.6%
same,inhibition at 0.1 µM,[27]; 0.1 μM,16%
same,inhibition at 1 µM,[27]; 1 μM,72.4%
same,inhibition at 0.1 µM,[28]; 0.1 μM,5.2%
same,inhibition at 1 µM,[28]; 1 μM,-12.3%
same,inhibition at 0.1 µM,[29]; 0.1 μM,1.7%
same,inhibition at 1 µM,[29]; 1 μM,3.5%
same,inhibition at 0.1 µM,[30]; 0.1 μM,-3.4%
same,inhibition at 1 µM,[30]; 1 μM,-22%
same,inhibition at 0.1 µM,[31]; 0.1 μM,7.1%
same,inhibition at 1 µM,[31]; 1 μM,6.5%

# Source: patent US9156845B2, “4-(substituted amino)-7H-pyrrolo[2,3-d] pyrimidines as LRRK2 inhibitors” (Pfizer Inc., priority 2012, dated 2015)
